Results: US11339171B2, “MDM2 inhibitors” (Gan & Lee Pharmaceuticals, priority 2017, dated 2022)
pIC50: −log10 of the molar value. Values joined by “and” are separate entries in the source; they are usually repeats but may differ in a detail not shown here. Equal values may be shown once. Read-outs that look alike come from different tables or passages of the source.

Experiments:
[1] = Pharmacokinetics in ICR mice after intravenous and intragastric administration; assay type: in vivo; conditions: for MRT inf: read-out: MRT(0-∞); for Vd: read-out: Vz; for MRT last: read-out: MRT(0-t); for bioavailability: PO 5 mg/kg vs IV 2 mg/kg, from mean values, read-out: F* (bioavailability)
Procedure, shortened: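 Single-dose mouse PK study: i.v. 2 mg/kg and intragastric 5 mg/kg to fasted male ICR mice, three animals per arm. Exposure and disposition parameters (Cmax, Tmax, AUC, t1/2, F, CL, Vz) came from LC-MS/MS plasma levels.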

[2] = system: human osteosarcoma cell line SJSA-1; assay: Inhibition of proliferation of human osteosarcoma cell line SJSA-1 (DAPI staining, In Cell Analyzer); conditions: Homo sapiens, SJSA-1, 72 h, read-out: IC50 (nM), inhibitory activity on proliferation of human osteosarcoma cell line SJSA-1, SJSA-1, incubated 72 h
MDM2 = molecular target: T1, MDM2 (Homo sapiens, UniProt Q00987); assay: Inhibition test of MDM2-P53 (GST-MDM2, Biotin-P53, Anti-GST-Tb, SA-XL665); assay type: binding
T1 construct: made in house
T1 sequence (Q00987 whole entry): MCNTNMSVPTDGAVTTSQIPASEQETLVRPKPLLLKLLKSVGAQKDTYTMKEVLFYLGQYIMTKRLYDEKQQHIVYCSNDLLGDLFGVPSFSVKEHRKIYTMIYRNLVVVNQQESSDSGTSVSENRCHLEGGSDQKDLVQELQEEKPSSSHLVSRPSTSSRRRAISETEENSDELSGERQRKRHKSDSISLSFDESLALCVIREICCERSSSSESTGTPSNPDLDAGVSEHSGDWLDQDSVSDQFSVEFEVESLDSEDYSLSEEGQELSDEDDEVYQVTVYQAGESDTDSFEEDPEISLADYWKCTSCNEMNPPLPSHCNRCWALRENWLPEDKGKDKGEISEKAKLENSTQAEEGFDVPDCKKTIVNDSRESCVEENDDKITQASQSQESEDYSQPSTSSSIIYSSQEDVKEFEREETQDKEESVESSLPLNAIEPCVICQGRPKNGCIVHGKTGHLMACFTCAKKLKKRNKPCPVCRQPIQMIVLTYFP
Procedure, shortened: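 Compounds, serially diluted 5-fold (twelve concentrations), were shaken for 90 min at 25° C with a mix of GST-MDM2 (4 nM final), Biotin-P53, anti-GST-Tb and SA-XL665. Buffer: 1×PBS, 0.1% BSA, 5 mM DTT, 1 mM AEBSF; signal read on a microplate reader.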

[3] = ICR mice, IV 2 mg/kg, individual animal, 2 mg/kg
[4] = ICR mice, PO 5 mg/kg, individual animal, 5 mg/kg
[5] = male, ICR, mouse, plasma, iv, 2 mg/kg, ICR mice, IV 2 mg/kg, individual animal, read-out: Cmax
[6] = male, ICR, mouse, plasma, iv, 2 mg/kg, ICR mice, IV 2 mg/kg, individual animal
[7] = male, ICR, mouse, plasma, iv, 2 mg/kg, ICR mice, IV 2 mg/kg, individual animal, read-out: t1/2 (converted)
[8] = male, ICR, mouse, plasma, iv, 2 mg/kg, ICR mice, IV 2 mg/kg, mean of 3 animals
[9] = male, ICR, mouse, plasma, iv, 2 mg/kg, ICR mice, IV 2 mg/kg, mean of 3 animals, read-out: AUC(0-t)
[10] = male, ICR, mouse, plasma, iv, 2 mg/kg, ICR mice, IV 2 mg/kg, mean of 3 animals, read-out: Cmax
[11] = male, ICR, mouse, plasma, iv, 2 mg/kg, ICR mice, IV 2 mg/kg, mean of 3 animals, read-out: Tmax
[12] = male, ICR, mouse, plasma, iv, 2 mg/kg, ICR mice, IV 2 mg/kg, mean of 3 animals, read-out: t1/2 (converted)
[13] = male, ICR, mouse, plasma, po, 5 mg/kg, ICR mice, PO 5 mg/kg, individual animal
[14] = male, ICR, mouse, plasma, po, 5 mg/kg, ICR mice, PO 5 mg/kg, individual animal, read-out: AUC(0-t)
[15] = male, ICR, mouse, plasma, po, 5 mg/kg, ICR mice, PO 5 mg/kg, individual animal, read-out: Tmax
[16] = male, ICR, mouse, plasma, po, 5 mg/kg, ICR mice, PO 5 mg/kg, individual animal, read-out: t1/2 (converted)
[17] = male, ICR, mouse, plasma, po, 5 mg/kg, ICR mice, PO 5 mg/kg, mean of 3 animals
[18] = male, ICR, mouse, plasma, po, 5 mg/kg, ICR mice, PO 5 mg/kg, mean of 3 animals, read-out: AUC(0-t)
[19] = male, ICR, mouse, plasma, po, 5 mg/kg, ICR mice, PO 5 mg/kg, mean of 3 animals, read-out: Cmax
[20] = male, ICR, mouse, plasma, po, 5 mg/kg, ICR mice, PO 5 mg/kg, mean of 3 animals, read-out: Tmax
[21] = male, ICR, mouse, plasma, po, 5 mg/kg, ICR mice, PO 5 mg/kg, mean of 3 animals, read-out: t1/2 (converted)
[22] = male, ICR, mouse, plasma, po, 5 mg/kg, oral intragastric administration 5 mg/kg, read-out: AUC0-t
[23] = male, ICR, mouse, plasma, po, 5 mg/kg, oral intragastric administration 5 mg/kg, read-out: half-life (converted)

For COc1cc(C2CC2)ncc1-c1nc2c(n1C(C)C)[C@@]1(C(=O)Nc3cc(Cl)ccc31)N(c1cc(Cl)ccc1C)C2=O [Example S-103, (S)-6-chloro-5′-(5-chloro-2-methylphenyl)-2′-(6-cyclopropyl-4-methoxypyridin-3-yl)-3′-isopropyl-3′H-spiro[dihydroindole-3,4′-pyrrolo[3,4-d]imidazole]-2,6′(5′H)-dione], the “AUC(0-t)” value [1, 3] was 10460.62 ng·h/mL and 4009.87 ng·h/mL and 5508.40 ng·h/mL, the “AUC(0-∞)” value [1, 3] was 10483.52 ng·h/mL and 5119.53 ng·h/mL and 8771.81 ng·h/mL and the CL [1, 3] was 3.18 mL/min/kg and 6.51 mL/min/kg and 3.80 mL/min/kg. For the same molecule, the Cmax [1, 3] was 1045.99 ng/mL and 1333.49 ng/mL, the “MRT(0-t)” value [1, 3] was 4.16 h and 2.05 h and 2.33 h and the “MRT(0-∞)” value [1, 3] was 3.75 h and 5.91 h. The Vz [1, 3] was 1.53 L/kg and 1.35 L/kg, the t1/2 [1, 3] was 2.71 h and 4.11 h and the “AUC(0-t)” value [1, 4] was 13078.28 ng·h/mL and 19872.62 ng·h/mL. For the same molecule, the “AUC(0-∞)” value [1, 4] was 14231.55 ng·h/mL and 19888.79 ng·h/mL, the Cmax [1, 4] was 2344.01 ng/mL and 3008.06 ng/mL and the “MRT(0-t)” value [1, 4] was 3.36 h and 4.45 h. For the same molecule, the “MRT(0-∞)” value [1, 4] was 3.93 h and 4.47 h, the Tmax [1, 4] was 4.00 h and the t1/2 [1, 4] was 1.72 h and 2.23 h. It also gave a Cmax [1, 5] of 1330 ng/mL, an MRT inf [1, 6] of 4.21 h and a Tmax ([1]; male, ICR, mouse, plasma, iv, 2 mg/kg, ICR mice, IV 2 mg/kg, individual animal, read-out: Tmax) of 1 h. It also gave a Vd [1, 6] of 0.79 L/kg, a half-life [1, 7] of 2.89 h and an AUC(0-inf) [1, 8] of 8120 ng·h/mL. The clearance [1, 8] was 4.5 mL/min/kg, the AUC(0-t) [1, 9] was 6660 ng·h/mL and the Cmax [1, 10] was 1240 ng/mL. The MRT last [1, 8] was 2.85 h, the MRT inf [1, 8] was 4.62 h and the Tmax [1, 11] was 1 h. The Vd [1, 8] was 1.22 L/kg, the half-life [1, 12] was 3.24 h and the AUC(0-inf) [1, 13] was 11700 ng·h/mL. The AUC(0-t) [1, 14] was 11000 ng·h/mL, the Cmax ([1]; male, ICR, mouse, plasma, po, 5 mg/kg, ICR mice, PO 5 mg/kg, individual animal, read-out: Cmax) was 2380 ng/mL and the MRT last [1, 13] was 3.08 h. For the same molecule, the MRT inf [1, 13] was 3.54 h, the Tmax [1, 15] was 2 h and the half-life [1, 16] was 1.84 h. For the same molecule, the AUC(0-inf) [1, 17] was 15300 ng·h/mL, the AUC(0-t) [1, 18] was 14600 ng·h/mL and the Cmax [1, 19] was 2580 ng/mL. It also gave an MRT last [1, 17] of 3.63 h, an MRT inf [1, 17] of 3.98 h and a Tmax [1, 20] of 3.33 h. For the same molecule, the half-life [1, 21] was 1.93 h, the AUC(0-t) [1, 22] was 14600 ng·h/mL and the half-life [1, 23] was 1.93 h. For the same molecule, the bioavailability ([1]; male, mouse, plasma, ICR mice) was 87.9%, the IC50 [2] was 40.5 nM and the pIC50 (MDM2) was 8.74.
With COc1cc(C(C)C)ccc1-c1nc2c(n1C(C)C)[C@@]1(C(=O)Nc3cc(Cl)ccc31)N(c1cc(Cl)ccc1C)C2=O [Example S-32, (S)-6-chloro-5′-(5-chloro-2-methylphenyl)-3′-isopropyl-2′-(4-isopropyl-2-methoxyphenyl)-3′H-spiro[dihydroindole-3,4′-pyrrolo[3,4-d]imidazole]-2,6′(5′H)-dione] the “AUC(0-t)” value [1, 3] was 3859.04 ng·h/mL and 4699.29 ng·h/mL, the “AUC(0-∞)” value [1, 3] was 4004.98 ng·h/mL and 4854.66 ng·h/mL and the CL [1, 3] was 8.323 mL/min/kg and 6.8663 mL/min/kg. For the same molecule, the Cmax [1, 3] was 1902.13 ng/mL and 2766.01 ng/mL, the “MRT(0-t)” value [1, 3] was 1.29 h and 1.32 h and the “MRT(0-∞)” value [1, 3] was 1.53 h. The Tmax [1, 3] was 0.50 h and 0.08 h and 0.25 h, the Vz [1, 3] was 0.90833 L/kg and 0.7302 L/kg and the t1/2 [1, 3] was 1.26 h and 1.23 h. For the same molecule, the “AUC(0-t)” value [1, 4] was 10704.89 ng·h/mL and 8458.06 ng·h/mL, the “AUC(0-∞)” value [1, 4] was 11027.74 ng·h/mL and 9168.53 ng·h/mL and the Cmax [1, 4] was 1578.70 ng/mL and 3356.31 ng/mL and 2518.33 ng/mL. The “MRT(0-t)” value [1, 4] was 2.24 h and 2.48 h, the “MRT(0-∞)” value [1, 4] was 2.48 h and 3.14 h and the t1/2 [1, 4] was 1.51 h and 2.07 h. It also gave an AUC(0-inf) [1, 6] of 7630 ng·h/mL, a clearance [1, 6] of 4.37 mL/min/kg and an AUC(0-t) ([1]; male, ICR, mouse, plasma, iv, 2 mg/kg, ICR mice, IV 2 mg/kg, individual animal, read-out: AUC(0-t)) of 7200 ng·h/mL. The Cmax [1, 5] was 2450 ng/mL, the MRT last [1, 6] was 1.61 h and the MRT inf [1, 6] was 1.97 h. The Vd [1, 6] was 0.543 L/kg, the half-life [1, 7] was 1.44 h and the AUC(0-inf) [1, 8] was 5500 ng·h/mL. For the same molecule, the clearance [1, 8] was 6.52 mL/min/kg, the AUC(0-t) [1, 9] was 5250 ng·h/mL and the Cmax [1, 10] was 2370 ng/mL. The MRT last [1, 8] was 1.41 h, the MRT inf [1, 8] was 1.68 h and the Tmax [1, 11] was 0.278 h. It also gave a Vd [1, 8] of 0.727 L/kg, a half-life [1, 12] of 1.31 h and an AUC(0-inf) [1, 13] of 7100 ng·h/mL. It also gave an AUC(0-t) [1, 14] of 6020 ng·h/mL, an MRT last [1, 13] of 2.79 h and an MRT inf [1, 13] of 4.22 h. It also gave a Tmax [1, 15] of 1 h, a half-life [1, 16] of 2.89 h and an AUC(0-inf) [1, 17] of 9100 ng·h/mL. The AUC(0-t) [1, 18] was 8390 ng·h/mL, the Cmax [1, 19] was 2480 ng/mL and the MRT last [1, 17] was 2.5 h. The MRT inf [1, 17] was 3.28 h, the Tmax [1, 20] was 1 h and the half-life [1, 21] was 2.16 h. For the same molecule, the AUC(0-t) [1, 22] was 8390 ng·h/mL, the half-life [1, 23] was 2.16 h and the bioavailability ([1]; male, mouse, plasma, ICR mice) was 63.9%. It also gave an IC50 [2] of 10.1 nM and a pIC50 (MDM2) of 8.41.
